# Read-outs that look alike come from different tables or passages of the source.
# Assays:
# 5-HT2A receptor [1] = target: T1, 5-HT2A receptor (Homo sapiens, UniProt P28223); test: Binding to the 5-HT2A receptor, [125I]-DOI, CHO cell line (Method (c)); parameters: expressed in transfected cells; host or cells: CHO cell line
# Method: (§1) The binding of compounds of formula (I) to serotonin receptors was determined in vitro by standard methods. The preparations were investigated in accordance with the assays given hereinafter.
# Method (c): For the binding to the 5-HT2A receptor the 5-HT2A receptors were radiolabeled with [^125I]-DOI. The affinity of the compounds for 5-HT2A receptors in a CHO cell line was determined according to the procedure of D. J. McKenna and S. J. Peroutka, J. Neurosci., 1989, 9, 3482-90.
# 5-HT2C receptor [2] = target: T2, 5-HT2C receptor (Homo sapiens, UniProt P28335); test: Binding to the 5-HT2C receptor, [3H]-5-HT, CHO cell line (Method (a)); parameters: expressed in transfected cells; host or cells: CHO cell line
# T2 sequence (P28335 33-458): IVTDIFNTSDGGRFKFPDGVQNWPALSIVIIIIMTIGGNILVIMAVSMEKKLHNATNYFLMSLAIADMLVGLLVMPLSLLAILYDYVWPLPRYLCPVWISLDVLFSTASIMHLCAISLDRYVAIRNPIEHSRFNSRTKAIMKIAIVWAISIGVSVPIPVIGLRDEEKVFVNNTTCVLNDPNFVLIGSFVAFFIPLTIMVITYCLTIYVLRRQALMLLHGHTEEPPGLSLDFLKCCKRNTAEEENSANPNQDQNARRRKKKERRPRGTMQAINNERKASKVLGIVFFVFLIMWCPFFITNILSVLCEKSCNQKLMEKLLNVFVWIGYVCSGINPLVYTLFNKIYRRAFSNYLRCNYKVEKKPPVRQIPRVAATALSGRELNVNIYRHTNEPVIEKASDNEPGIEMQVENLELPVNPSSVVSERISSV
# Method: as §1
# Method (a): For the binding to the 5-HT2C receptor the 5-HT2C receptors were radiolabeled with [^3H]-5-HT. The affinity of the compounds for 5-HT2C receptors in a CHO cell line was determined according to the procedure of D. Hoyer, G. Engel and H. O. Kalkman, European J. Pharmacol., 1985, 118, 13-23.
# 5-HT2C receptor [3] = target: T2, 5-HT2C receptor; test: Functional activity, FLIPR calcium assay, CHO cells expressing human 5-HT2C; assay type: cell-based; parameters: expressed in transfected cells; host or cells: CHO cells; settings: for h5-HT2C Rel. Eff.: maximum fluorescent signal relative to 10 μM 5-HT (defined as 100%)
# Method: (§2) The functional activity of compounds of formula (I) was assayed using a Fluorimetric Imaging Plate Reader (FLIPR). CHO cells expressing the human 5-HT2C or human 5-HT2A receptors were counted and plated into standard 96 well microtitre plates on the day before testing to give a confluent monolayer. The cells were then loaded with the calcium sensitive dye, Fluo-3-AM. Unincorporated dye was removed using an automated cell washer to leave a total volume of 100 μL/well of assay buffer (Hanks balanced salt solution containing 20 mM Hepes and 2.5 mM probenecid). The drug (dissolved in 50 μL of the assay buffer) was added at a rate of 70 μL/sec to each well of the FLIPR 96 well plate during fluorescence measurements. The measurements were taken at 1 sec intervals and the maximum fluorescent signal was measured (approx 10-15 secs after drug addition) and compared with the response produced by 10 μM 5-HT (defined as 100%) to which it was expressed as a percentage response (relative efficacy). Dose response curves were constructed using Graphpad Prism (Graph Software Inc.).
# 5-HT2A receptor [4] = target: T1, 5-HT2A receptor; test: Functional activity, FLIPR calcium assay, CHO cells expressing human 5-HT2A; assay type: cell-based; parameters: expressed in transfected cells; host or cells: CHO cells; settings: for EC50: FLIPR, CHO cells, Fluo-3-AM, read-out: h5-HT2A EC50; for h5-HT2A Rel. Eff.: maximum fluorescent signal relative to 10 μM 5-HT (defined as 100%)
# Method: as §2
# human 5-HT2B receptors = target: T3, human 5-HT2B receptors (Homo sapiens, UniProt P41595); test: Binding to the 5-HT2B receptor, [3H]-5-HT, CHO cell line (Method (b))
# T3 construct: expressed in transfected cells; host or cells: CHO cell line
# T3 sequence (P41595 whole entry): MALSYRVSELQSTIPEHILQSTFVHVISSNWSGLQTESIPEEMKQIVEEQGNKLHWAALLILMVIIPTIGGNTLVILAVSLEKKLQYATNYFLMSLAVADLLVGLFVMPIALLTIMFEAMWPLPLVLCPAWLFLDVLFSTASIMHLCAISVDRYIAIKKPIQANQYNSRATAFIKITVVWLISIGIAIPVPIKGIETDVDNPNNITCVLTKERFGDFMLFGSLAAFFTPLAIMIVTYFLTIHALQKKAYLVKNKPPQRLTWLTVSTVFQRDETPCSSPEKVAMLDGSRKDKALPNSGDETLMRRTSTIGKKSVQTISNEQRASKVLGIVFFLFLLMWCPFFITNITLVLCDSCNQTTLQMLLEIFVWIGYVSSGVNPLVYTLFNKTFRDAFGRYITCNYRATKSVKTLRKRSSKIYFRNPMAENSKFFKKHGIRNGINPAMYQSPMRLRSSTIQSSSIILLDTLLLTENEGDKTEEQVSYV
# Method: as §1
# Method (b): For the binding to the 5-HT2B receptor the 5-HT2B receptors were radiolabeled with [^3H]-5-HT. The affinity of the compounds for human 5-HT2B receptors in a CHO cell line was determined according to the procedure of K. Schmuck, C. Ullmer, P. Engels and H. Lubbert, FEBS Lett., 1994, 342, 85-90.
# [5] = Method (c), [125I]-DOI, CHO cell line, read-out: Ki (2A)
# [6] = Method (a), [3H]-5-HT, CHO cell line, read-out: Ki (2C)
# [7] = FLIPR, CHO cells, Fluo-3-AM, read-out: h5-HT2C EC50
# [8] = Method (b), [3H]-5-HT, human 5-HT2B, CHO cell line, read-out: Ki (2B)
# T1 sequence (P28223 whole entry): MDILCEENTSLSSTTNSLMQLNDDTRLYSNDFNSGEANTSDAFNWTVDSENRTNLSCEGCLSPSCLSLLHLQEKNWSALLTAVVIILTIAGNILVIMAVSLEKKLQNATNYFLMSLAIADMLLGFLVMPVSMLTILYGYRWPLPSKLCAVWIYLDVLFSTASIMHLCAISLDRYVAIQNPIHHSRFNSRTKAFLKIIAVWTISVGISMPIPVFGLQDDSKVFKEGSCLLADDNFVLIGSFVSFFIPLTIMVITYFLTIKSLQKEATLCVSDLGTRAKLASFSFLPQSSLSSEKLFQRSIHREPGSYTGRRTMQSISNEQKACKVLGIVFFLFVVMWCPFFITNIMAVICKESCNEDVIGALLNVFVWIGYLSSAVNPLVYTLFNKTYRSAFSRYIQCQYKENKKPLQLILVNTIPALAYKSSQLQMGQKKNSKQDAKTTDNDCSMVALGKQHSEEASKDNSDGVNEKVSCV
Structure (SMILES),Ki (5-HT2A receptor [1]; [5]) [nM],Ki (5-HT2C receptor [2]; [6]) [nM],EC50 (5-HT2C receptor [3]; [7]) [nM],h5-HT2C Rel. Eff. (5-HT2C receptor [3]) [%],EC50 (5-HT2A receptor [4]) [nM],h5-HT2A Rel. Eff. (5-HT2A receptor [4]) [%],Ki (human 5-HT2B receptors; [8]) [nM],Ki (5-HT2A receptor [1]) [nM],Ki (5-HT2C receptor [2]) [nM],EC50 (5-HT2C receptor [3]) [nM],Ki (human 5-HT2B receptors) [nM]
"FC(F)(F)c1cccc(C[C@@H]2CNCCO2)c1 [Example 14, (R)-2-(3-trifluoromethyl)benzylmorpholine]",89,10,7,97,511,47,55,–,–,–,–
"COc1c(C)cc(C[C@@H]2CNCCO2)cc1Br [Example 46, (R)-2-(3-bromo-4-methoxy-5-methyl-benzyl)morpholine]",641,82,53,94,> 3000,21,> 10000,–,–,–,–
c1ccc(C[C@@H]2CNCCO2)cc1 [reference compound],–,–,–,41,> 3000,2,–,> 10000,169,> 3000,> 10000

# — US7323466B2, “Morpholine derivatives as 5HT2C receptor agonists for the treatment of obesity” (Hoffman-La Roche Inc., priority 2005, dated 2008)
